The values below come from patent publication US20050124497A1, “Delta1-pyrrolines and their use as pest control agents” (priority 2002, published 2005).

As usually defined, the chromatographic logP is a lipophilicity value derived from retention on a column. A lower chromatographic logP goes with a more hydrophilic compound.

The test system of one series is Meloidogyne incognita egg/larvae suspension. Briefly: Meloidogyne test. The class given is in vivo. The conditions noted are these: 20 ppm active compound, lettuce in sand, nematicidal action by gall formation. As to the method: To produce a suitable preparation of active compound, 1 part by weight of active compound is mixed with the stated amounts of solvent and emulsifier, and the concentrate is diluted with water to the desired concentration.
Containers are filled with sand, solution of active compound, Meloidogyne incognita egg/larvae suspension and lettuce seeds. The lettuce seeds germinate and the plants develop. On the roots, galls are formed.
After the desired period of time, the nematicidal action is determined in % by gall formation. 100% means that no galls were found; 0% means that the number of galls on the treated plants corresponds to that of the untreated control.
Regarding `O=C(Nc1ncccc1O)c1ccc(C2CCC(c3c(F)cccc3F)=N2)cc1` (centres unmarked) [drawing 34], the “Efficacy in % after 7 d” value came out at 95%.

As to `CNS(=O)(=O)c1cc2oc(-c3ccc(C4CCC(c5c(F)cccc5F)=N4)cc3)nc2cc1Cl` (centres unmarked), the “Efficacy in % after 7 d” value is 80%.

Regarding `Cc1cc2oc(-c3ccc(C4CCC(c5c(F)cccc5F)=N4)cc3)nc2c(C)c1Cl` (centres unmarked), the “Efficacy in % after 7 d” value worked out at 98%. In the case of `Fc1cccc(F)c1C1=NC(c2ccc(-c3nc4ccccc4s3)cc2)CC1` (centres unmarked) [drawing 35], the “Efficacy in % after 7 d” value was 80%.

Tested on in a further series: not listed separately
Briefly: log P by HPLC (reversed-phase C18), acidic range pH 2.3. Format: physicochemical. The settings on record: reversed-phase C18 HPLC column; pH 2.3, 0.1% aqueous phosphoric acid/acetonitrile, 43° C. As to the method:
The log P values given in the Tables and Preparation Examples above are determined in accordance with EEC Directive 79/831 Annex V.A8 by HPLC (High Performance Liquid Chromatography) using a reversed-phase column (C 18). Temperature: 43° C.
The determination in the acidic range is carried out at pH 2.3 using the mobile phases 0.1% aqueous phosphoric acid and acetonitrile; linear gradient from 10% acetonitrile to 90% acetonitrile. In the Tables, the values are marked a).
Calibration is carried out using unbranched alkan-2-ones (of 3 to 16 carbon atoms) with known log P values (determination of the log P values by retention times using linear interpolation between two successive alkanones).
`Fc1cccc(F)c1C1=NC(c2ccc(-c3nc4cc(SC(F)(F)F)ccc4o3)cc2)CC1` (centres unmarked) [Example 2] showed a chromatographic logP of 4.98.

The compound `O=C(Nc1ncccc1O)c1ccc(C2CCC(c3c(F)cccc3F)=N2)cc1` (centres unmarked) [II-4, 4-[5-(2,6-difluorophenyl)-3,4-dihydro-2H-pyrrol-2-yl]-N-(3-hydroxy-2-pyridinyl)benzamide] yielded a chromatographic logP of 1.16.

In the case of `CC(C)(C)c1ccc(O)c(NC(=O)c2ccc(C3CCC(c4c(F)cccc4F)=N3)cc2)c1` (centres unmarked) [II-1, N-(5-tert-btyl-2-hydroxyphenyl)-4-[5-(2,6-difluorohenyl)-3,4-dihydro-2H-pyrrol-2-yl]benzamide], the chromatographic logP stood at 3.22. Same read-out and setting: the result for `Fc1ccc2nc(-c3ccc(C4CCC(c5c(F)cccc5F)=N4)cc3)oc2c1` (centres unmarked) [Example 5, 2-{4-[5-(2,6-difluorophenyl)-3,4-dihydro-2H-pyrrol-2-yl]phenyl}-6-fluoro-1,3-benzoxazole] reads 3.53; that for `Fc1cccc(F)c1C1=NC(c2ccc(-c3nc4ccccc4o3)cc2)CC1` (centres unmarked) [Example 3, 2-{4-[5-(2,6-difluorophenyl)-3,4-dihydro-2H-pyrrol-2-yl]phenyl}-1,3-benzoxazole], 3.22. Take `CC(C)(C)c1ccc2oc(-c3ccc(C4CCC(c5c(F)cccc5F)=N4)cc3)nc2c1` (centres unmarked) [Example 1, 5-tert-butyl-2-{4-[5-(2,6-difluorophenyl)-3,4-dihydro-2H-pyrrol-2-yl]phenyl}-1,3-benzoxazole]: the chromatographic logP was found to be 5.11. On the same count and under the same terms, the result for `Fc1cccc(F)c1C1=NC(c2ccc(-c3nc4ncccc4o3)cc2)CC1` (centres unmarked) [Example 4, 2-{4-[5-(2,6-difluorophenyl)-3,4-dihydro-2H-pyrrol-2-yl]-phenyl}[1,3]oxazole[4,5-b]pyridine] reads 2.06.

The next series has as its system greenhouse red spider mite (Tetranychus urticae). Briefly: Tetranychus test (OP-resistant/dip treatment). Format: in vivo. The settings on record: 168 h, 100 ppm active compound, bean plants dipped, all stages, after 7 d, read-out: Efficacy in % after 7 d. As to the method:
Tetranychus Test (OP-Resistant/Dip Treatment)
(§1) To produce a suitable preparation of active compound, 1 part by weight of active compound is mixed with the stated amounts of solvent and emulsifier, and the concentrate is diluted with emulsifier-containing water to the desired concentration.
Bean plants (Phaseolus vulgaris) which are heavily infested by all stages of the greenhouse red spider mite (Tetranychus urticae) are treated by being dipped into a preparation of active compound of the desired, concentration.
After the desired period of time, the effect in % is determined. 100% means that all spider mites have been killed; 0% means that none of the spider mites have been killed.
Regarding `Fc1cccc(F)c1C1=NC(c2ccc(-c3nc4ccccc4s3)cc2)CC1` (centres unmarked) [drawing 65], the pest or weed control at 100 ppm is 99%.

On to `Fc1cc(-c2nc3cc(-c4ccccc4)ccc3o2)ccc1C1CCC(c2c(F)cccc2F)=N1` (centres unmarked) [drawing 68], for which the pest or weed control at 100 ppm was 99%.

As to `Fc1cc(-c2nc3cc(Cl)ccc3o2)ccc1C1CCC(c2c(F)cccc2F)=N1` (centres unmarked) [drawing 67], the pest or weed control at 100 ppm is 95%. On the same count and under the same terms, under `Fc1cccc(F)c1C1=NC(c2ccc(-c3nc4cc(C(F)(F)F)cc(C(F)(F)F)c4o3)cc2)CC1` (centres unmarked) stands 100%; under `CN(C)S(=O)(=O)c1cc2oc(-c3ccc(C4CCC(c5c(F)cccc5F)=N4)cc3)nc2cc1Cl` (centres unmarked) [drawing 64], 90%; under `Fc1cc(-c2nc3ccccc3o2)ccc1C1CCC(c2c(F)cccc2F)=N1` (centres unmarked), 95%. The same measure, in the same setting: under `Fc1cccc(F)c1C1=NC(c2ccc(-c3nc4cc(C(F)(F)F)ccc4s3)cc2)CC1` (centres unmarked) [drawing 69] stands 90%; under `Fc1cccc(F)c1C1=NC(c2ccc(-c3nc4cc(C(F)(F)F)cc(Cl)c4o3)cc2)CC1` (centres unmarked), 95%; under `Fc1cccc(F)c1C1=NC(c2ccc(-c3nc4cc(C(F)(F)F)c(Cl)cc4o3)cc2)CC1` (centres unmarked) [drawing 63], 98%.

In another series the test system is caterpillars of the armyworm (Spodoptera frugiperda). The series can be described thus: Spodoptera frugiperda test. Format: in vivo. The settings on record: 168 h, 100 ppm active compound, cabbage leaves dipped, kill after 7 d, read-out: Efficacy in % after 7 d. As to the method: Spodoptera Frugiperda Test
as §1
Cabbage leaves (Brassica oleracea) are treated by being dipped into the preparation of active compound of the desired concentration and are populated with caterpillars of the armyworm (Spodoptera frugiperda) while the leaves are still moist.
(§2) After the desired period of time, the kill in % is determined. 100% means that all caterpillars have been killed; 0% means that none of the caterpillars have been killed.
`Cc1ccccc1C1=NC(c2ccc(-c3nc4ccccc4o3)cc2)CC1` (centres unmarked): the pest or weed control at 100 ppm worked out at 100%. Still for that read-out and setting: the result for `CN(C)S(=O)(=O)c1cc2oc(-c3ccc(C4CCC(c5c(F)cccc5F)=N4)cc3)nc2cc1Cl` (centres unmarked) [drawing 58] reads 100%; that for `Fc1cc(-c2nc3cc(Cl)ccc3o2)ccc1C1CCC(c2c(F)cccc2F)=N1` (centres unmarked) [drawing 59], 100%; that for `Fc1cccc(F)c1C1=NC(c2ccc(-c3nc4cc(Cl)cc(Cl)c4o3)cc2)CC1` (centres unmarked), 100%.

As to `Fc1cccc(F)c1C1=NC(c2ccc(-c3nc4cc(Cl)ccc4o3)cc2)CC1` (centres unmarked), the pest or weed control at 100 ppm came to 100%. As to `Fc1cccc(F)c1C1=NC(c2ccc(-c3nc4cc(C(F)(F)F)ccc4s3)cc2)CC1` (centres unmarked) [drawing 60], the pest or weed control at 100 ppm was found to be 100%.

The series is the same for the next values; noted with them: 168 h, 500 ppm active compound, cabbage leaves dipped, kill after 7 d, read-out: Efficacy in % after 7 d.
With `Fc1ccc2nc(-c3ccc(C4CCC(c5c(F)cccc5F)=N4)cc3)oc2c1` (centres unmarked) [drawing 54], the pest or weed control at 500 ppm was 100%. Turning to `CC(C)(C)c1ccc(O)c(NC(=O)c2ccc(C3CCC(c4c(F)cccc4F)=N3)cc2)c1` (centres unmarked) [drawing 55], the pest or weed control at 500 ppm came to 100%. As for `Fc1cccc(F)c1C1=NC(c2ccc(-c3nc4ncccc4o3)cc2)CC1` (centres unmarked) [drawing 49], the pest or weed control at 500 ppm stood at 100%. For `CC(C)(C)c1ccc2oc(-c3ccc(C4CCC(c5c(F)cccc5F)=N4)cc3)nc2c1` (centres unmarked) [drawing 50], the pest or weed control at 500 ppm worked out at 100%.

Turning to `Fc1cccc(F)c1C1=NC(c2ccc(-c3nc4cc(SC(F)(F)F)ccc4o3)cc2)CC1` (centres unmarked) [drawing 52], the pest or weed control at 500 ppm turned out to be 100%.

The same series, now with this note: in Brassica oleracea, 168 h, read-out: Efficacy in % after 7 d.
For the compound `O=[N+]([O-])c1cc2oc(-c3ccc(C4CCC(c5c(F)cccc5F)=N4)cc3)nc2cc1Cl` (centres unmarked), the pest or weed control at 500 ppm worked out at 100%. On the same count and under the same terms, under `Fc1cccc(F)c1C1=NC(c2ccc(-c3nc4ccccc4o3)cc2)CC1` (centres unmarked) [drawing 48] stands 100%.

Another series relates to Heliothis armigera caterpillars. Briefly: Heliothis armigera test. The conditions noted are these: 100 ppm active compound, soya bean shoots dipped, kill after 7 d. The class given is in vivo. As to the method:
Solvent: 7 parts by weight of dimethylformamide
Emulsifier: 2 parts by weight of alkylaryl polyglycol ether
as §1
Soya bean shoots (Glycine max) are treated by being dipped into the preparation of active compound of the desired concentration and are populated with Heliothis armigera caterpillars while the leaves are still moist.
as §2
Consider `Fc1cccc(F)c1C1=NC(c2ccc(-c3nc4cc(C(F)(F)F)ccc4s3)cc2)CC1` (centres unmarked) [drawing 32], for which the “Efficacy in % after 7 d” value was determined as 100%. The same measure, in the same setting: the result for `Fc1cccc(F)c1C1=NC(c2ccc(-c3nc4cc(C(F)(F)F)c(Cl)cc4o3)cc2)CC1` (centres unmarked) [drawing 27] reads 100%. On the same count and under the same terms, the result for `Fc1cccc(F)c1C1=NC(c2ccc(-c3nc4cc(Br)ccc4o3)cc2)CC1` (centres unmarked) [drawing 33] reads 100%.

Take `Fc1cc(-c2nc3cc(OC(F)(F)F)ccc3o2)ccc1C1CCC(c2c(F)cccc2F)=N1` (centres unmarked) [drawing 30]: the “Efficacy in % after 7 d” value was 100%. As for `Fc1cccc(F)c1C1=NC(c2ccc(-c3nc4cc(OC(F)(F)F)ccc4o3)cc2)CC1` (centres unmarked) [drawing 28], the “Efficacy in % after 7 d” value worked out at 100%. Regarding `Fc1cc(-c2nc3cc(Cl)ccc3o2)ccc1C1CCC(c2c(F)cccc2F)=N1` (centres unmarked) [drawing 31], the “Efficacy in % after 7 d” value was found to be 100%. The same measure, in the same setting: under `Fc1cccc(F)c1C1=NC(c2ccc(-c3nc4cc(-c5ccccc5)ccc4o3)cc2)CC1` (centres unmarked) [drawing 29] stands 100%.

A further series has as its system larvae of the mustard beetle (Phaedon cochleariae). Briefly: Phaedon larvae test. The class given is in vivo. The settings on record: 100 ppm active compound, cabbage leaves dipped, kill after 7 d. As to the method:
Phaedon Larvae Test [table] To produce a suitable preparation of active compound, 1 part by weight of active compound is mixed with the stated amounts of solvent and emulsifier, and the concentrate is diluted with emulsifier-containing water to the desired concentration. Cabbage leaves (Brassica oleracea) are treated by being dipped into the preparation of active compound of the desired concentration and are populated with larvae of the mustard beetle (Phaedon cochleariae) while the leaves are still moist.
As for `Fc1cc(-c2nc3cc(-c4ccccc4)ccc3o2)ccc1C1CCC(c2c(F)cccc2F)=N1` (centres unmarked) [drawing 45], the “Efficacy in % after 7 d” value is 100%. As for `Fc1cccc(F)c1C1=NC(c2ccc(-c3nc4cc(OC(F)(F)F)ccc4o3)cc2)CC1` (centres unmarked) [drawing 42], the “Efficacy in % after 7 d” value is recorded as 100%.

Turning to `Fc1cc(-c2nc3cc(OC(F)(F)F)ccc3o2)ccc1C1CCC(c2c(F)cccc2F)=N1` (centres unmarked) [drawing 44], the “Efficacy in % after 7 d” value is recorded as 100%. On the same count and under the same terms, under `Fc1cccc(F)c1C1=NC(c2ccc(-c3nc4cc(-c5ccccc5)ccc4o3)cc2)CC1` (centres unmarked) [drawing 43] stands 100%; under `Fc1cccc(F)c1C1=NC(c2ccc(-c3nc4cc(C(F)(F)F)c(Cl)cc4o3)cc2)CC1` (centres unmarked) [drawing 41], 100%.

The series is the same for the next values; noted with them: 500 ppm active compound, cabbage leaves dipped, kill after 7 d.
Consider `Fc1cccc(F)c1C1=NC(c2ccc(-c3nc4cc(SC(F)(F)F)ccc4o3)cc2)CC1` (centres unmarked) [drawing 40], for which the “Efficacy in % after 7 d” value is reported as 100%.

With `CC(C)(C)c1ccc2oc(-c3ccc(C4CCC(c5c(F)cccc5F)=N4)cc3)nc2c1` (centres unmarked) [drawing 39], the “Efficacy in % after 7 d” value amounted to 100%.
